# Measured values taken from patent US12636253B2, “Modified release compositions of nafamostat and methods of using same” (Ensysce Biosciences Inc., priority 2021, dated 2026).
# Like-named read-outs stand apart in the source and are kept apart here.
# Legend:
# [1] = cited from earlier work
# [2] = Blood hydromorphone after 1, 3, 6 or 10 pills of PF329 with or without nafamostat in rats; format: in vivo; details: rats, 1, 3, 6 or 10 PF329 pills containing nafamostat (FIG. 5)
# Text: The rat experiments were repeated with a derivative of hydromorphone (referred to herein as PF329), which is another known pain medication. FIGS. 4 and 5 show the blood concentration of active hydromorphone (HM) after the administration of 1, 3, 6, or 10 pills, either without or with nafamostat.
# [3] = Effect of nafamostat on plasma oxycodone after oral KC-8 in rats; format: in vivo; details: nafamostat co-administered with an oxycodone or hydromorphone derivative
# Description: The drug nafamostat mesylate was added to the formulations containing the KC-8 oxycodone-derivative. In the examples described herein, the terms “nafamostat mesylate” and “nafamostat” are used interchangeably.
# Formulations containing both KC-8 and optionally nafamostat were administered orally to rats. The KC-8 dose was 5 mg/kg and the nafamostat concentration was 0, 0.1, 0.5, or 1 mg/kg. Plasma concentrations of active oxycodone were measured at various time intervals over 24 hours after administration.
# In contrast, additional nafamostat reduced the maximum oxycodone concentration to a peak of about 0.75 ng/ml at about 5 hours. The error bars represent one standard deviation.
# In particular, the rats received 50 mg/kg of KC-8 and 0, 1, 5, or 10 mg/kg of nafamostat. With zero nafamostat, blood plasma concentration experienced a maximum of about 22 ng/ml at about 2 hours, wherein the concentration rapidly descended thereafter. In alignment with the data of FIG. 2, higher concentrations of nafamostat reduced the peak concentration to about 3 ng/ml at about 8 hours.
SMILES,"safety and tolerability ([1]; 200 mg nafamostat, healthy volunteer SAD data)",change of hydromorphone blood concentration on administering more pills [2],effect on maximum concentration of active drug in blood plasma [3],"safety and tolerability ([1]; previous SAD study, doses of up to 200 mg KC-8 (80 mg oxycodone))"
"N=C(N)c1ccc2cc(OC(=O)c3ccc(N=C(N)N)cc3)ccc2c1 [nafamostat, 6-carbamimidoylnaphthalen-2-yl 4-(diaminomethyleneamino)benzoate]",safe and well tolerated,little increase,significantly reduced the maximum concentration of active drug in blood plasma,–
"COc1ccc2c3c1O[C@H]1C(OC(=O)N(C)CC(C)(C)CNC(=O)[C@H](CCCNC(=N)N)NC(=O)CNC(=O)CC(=O)O)=CC[C@@]4(O)[C@@H](C2)N(C)CC[C@]314 [KC-8, N-1-[3-(oxycodone-6-enol-carbonyl-methyl-amino)-2,2-dimethyl-propylamine]-arginine-glycine-malonic acid]",–,–,–,safe and well tolerated
